From patent US8629159B2, “Thiazolidinedione analogues” (Metabolic Solutions Development Company, LLC, priority 2006, dated 2014)
Marks after values point to notes of the source that are not given here.

Experiments:
PPARγ = molecular target: T1, PPARγ (Homo sapiens, UniProt P37231); test: commercial PPARγ binding assay (Invitrogen; PPAR-LBD/Fluormone PPAR Green complex); conditions: mean of three experiments
T1 construct: purchased Invitrogen Corporation, Carlsbad, Calif
T1 sequence (P37231 238-503 limits assumed): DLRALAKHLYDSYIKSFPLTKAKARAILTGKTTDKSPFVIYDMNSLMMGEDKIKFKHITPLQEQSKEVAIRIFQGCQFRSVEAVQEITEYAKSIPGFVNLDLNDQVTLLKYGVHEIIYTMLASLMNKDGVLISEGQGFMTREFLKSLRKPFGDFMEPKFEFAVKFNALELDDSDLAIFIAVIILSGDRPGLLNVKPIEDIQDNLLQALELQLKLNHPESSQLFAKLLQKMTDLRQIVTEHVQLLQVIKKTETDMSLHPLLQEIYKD
Experimental: The ability of several exemplary compounds of the present invention, shown in Table A, to bind to PPARγ was measured using a commercial binding assay (Invitrogen Corporation, Carlsbad, Calif.) that measures the test compounds ability to bind with PPAR-LBD/Fluormone PPAR Green complex. These assays were performed on three occasions with each assay using four separate wells (quadruplicate) at each concentration of tested compound. The data are mean and SEM of the values obtained from the three experiments. […] Compounds were added at the concentrations shown, which range from 0.1-100 micromolar.

[1] = system: Male Dahl salt-sensitive rats; test: Antihypertensive action in hypertensive Dahl salt-sensitive rats (high salt diet), mean blood pressure by direct femoral arterial cannulation; assay type: in vivo, rat; conditions: oral gavage daily, Compound 1 40 mg/kg/day, HCTZ 5 mg/kg/day
Experimental: Male Dahl salt-sensitive rats were made hypertensive by feeding of a high salt diet (4% salt) for 3 weeks and then treated daily with the indicated dose of hydrochlorothiazide (HCTZ), compound 1, or the combination of HCTZ and compound 1, as compared to the vehicle alone (1% carboxymethylcellulose/0.01% Tween 20) by oral gavage for 8 days. Mean blood pressure was measured by direct femoral arterial cannulation under fed conditions on day 7 and after a 6 hour fast on day 8.
Referring to FIG. 2 and Table C above, the antihypertensive action of compound 1 is additive with hydrocholothiazide (HCTZ). Data are mean and (SEM) mean blood pressure taken by direct cannulation. N=5; * p<0.05 less than blood pressure in HCTZ-treated rats.

[2] = system: Male salt-sensitive Dahl rats; test: Fasting free fatty acids (FFA) and adiponectin in treated Dahl rats; assay type: in vivo, rat; conditions: 3 weeks treatment; 40 mg/kg compound 1, 20 mg/kg rosiglitazone
Experimental: Doses of these compounds were chosen to produce the same metabolic effects in terms of reduction of triglycerides and elevation of adiponectin (Table E). Direct blood pressure (systolic and diastolic) and heart rate was also measured by telemetry (Tables F—H and FIG. 4).

[3] = system: Male salt-sensitive Dahl rats; test: Blood pressure (systolic and diastolic) and heart rate by telemetry in hypertensive Dahl rats; assay type: in vivo, rat; conditions: 24 hour average
Experimental: Direct blood pressure (systolic and diastolic) and heart rate was also measured by telemetry (Tables F—H and FIG. 4). Data in Tables F—H and depicted in FIGS. 4A-4C are 24 hour averages for the last 4 days before the start of the daily oral gavage of treatments (−4, −3, −2, −1) and for the days 1-17 during the treatments shown.

[4] = day 1 of treatment, rosiglitazone 20 mg/kg, compound 1 40 mg/kg
[5] = day 2 of treatment, rosiglitazone 20 mg/kg, compound 1 40 mg/kg
[6] = day 3 of treatment, rosiglitazone 20 mg/kg, compound 1 40 mg/kg
[7] = day 4 of treatment, rosiglitazone 20 mg/kg, compound 1 40 mg/kg
[8] = day 5 of treatment, rosiglitazone 20 mg/kg, compound 1 40 mg/kg
[9] = day 6 of treatment, rosiglitazone 20 mg/kg, compound 1 40 mg/kg
[10] = day 7 of treatment, rosiglitazone 20 mg/kg, compound 1 40 mg/kg
[11] = day 8 of treatment, rosiglitazone 20 mg/kg, compound 1 40 mg/kg
[12] = day 9 of treatment, rosiglitazone 20 mg/kg, compound 1 40 mg/kg
[13] = day 10 of treatment, rosiglitazone 20 mg/kg, compound 1 40 mg/kg
[14] = day 11 of treatment, rosiglitazone 20 mg/kg, compound 1 40 mg/kg
[15] = day 12 of treatment, rosiglitazone 20 mg/kg, compound 1 40 mg/kg
[16] = day 13 of treatment, rosiglitazone 20 mg/kg, compound 1 40 mg/kg
[17] = day 14 of treatment, rosiglitazone 20 mg/kg, compound 1 40 mg/kg
[18] = day 15 of treatment, rosiglitazone 20 mg/kg, compound 1 40 mg/kg
[19] = day 16 of treatment, rosiglitazone 20 mg/kg, compound 1 40 mg/kg
[20] = day 17 of treatment, rosiglitazone 20 mg/kg, compound 1 40 mg/kg
[21] = day −1, before start of treatment
[22] = day −2, before start of treatment
[23] = day −3, before start of treatment
[24] = day −4, before start of treatment

Q: For `CCc1ccc(C(=CC(=O)OC)COc2ccc(CC3SC(=O)NC3=O)cc2)nc1` (stereo not shown) [Compound 11], which “Binding to PPARγ (Fluormone displacement signal)” value (shortened to “Binding to PPARγ”) (PPARγ; 1 μM compound) is on record?
A: 232

Q: What about the “Binding to PPARγ” value (PPARγ; 3 μM compound) of the same compound?
A: 229

Q: And the “Binding to PPARγ” value (PPARγ; 10 μM compound)?
A: 165

Q: What about the “Binding to PPARγ” value (PPARγ; 50 μM compound) of the same compound?
A: 128

Q: What about the “Binding to PPARγ” value (PPARγ; 100 μM compound) of the same compound?
A: 78

Q: And the “Binding to PPARγ” value (PPARγ; .1 μM compound)?
A: 230

Q: What about the “Binding to PPARγ” value (PPARγ; .3 μM compound) of the same compound?
A: 227

Q: What does the source list for `CCc1ccc(C(COc2ccc(CC3SC(=O)NC3=O)cc2)CC(=O)OC)nc1` (stereo not shown) [Compound 12]?
A: Binding to PPARγ (Fluormone displacement signal) (PPARγ; 1 μM compound): 198; Binding to PPARγ (Fluormone displacement signal) (PPARγ; 3 μM compound): 155; Binding to PPARγ (Fluormone displacement signal) (PPARγ; 10 μM compound): 112; Binding to PPARγ (Fluormone displacement signal) (PPARγ; 50 μM compound): 80; Binding to PPARγ (Fluormone displacement signal) (PPARγ; 100 μM compound): 85; Binding to PPARγ (Fluormone displacement signal) (PPARγ; .1 μM compound): 243; Binding to PPARγ (Fluormone displacement signal) (PPARγ; .3 μM compound): 222

Q: Which results are given for `CCc1ccc(C(=CCO)COc2ccc(CC3SC(=O)NC3=O)cc2)nc1` (stereo not shown) [Compound 13]?
A: Binding to PPARγ (Fluormone displacement signal) (PPARγ; 1 μM compound): 229; Binding to PPARγ (Fluormone displacement signal) (PPARγ; 3 μM compound): 230; Binding to PPARγ (Fluormone displacement signal) (PPARγ; 10 μM compound): 204; Binding to PPARγ (Fluormone displacement signal) (PPARγ; 50 μM compound): 148; Binding to PPARγ (Fluormone displacement signal) (PPARγ; 100 μM compound): 108; Binding to PPARγ (Fluormone displacement signal) (PPARγ; .1 μM compound): 244; Binding to PPARγ (Fluormone displacement signal) (PPARγ; .3 μM compound): 243

Q: With `NS(=O)(=O)c1cc2c(cc1Cl)NCNS2(=O)=O` [HCTZ, hydrochlorothiazide, reference compound] as the compound, how does the “Mean blood pressure, Fasted” value ([1]; 6 hour fast, day 8) read?
A: 155

Q: And the “Mean blood pressure, Fed” value ([1]; fed, day 7)?
A: 170

Q: With `CN(CCOc1ccc(CC2SC(=O)NC2=O)cc1)c1ccccn1` (stereo not shown) [Rosiglitazone, reference compound] as the compound, how does the Adiponectin [2] read?
A: 36*

Q: And the FFA [2]?
A: 0.77*

Q: What about the “Diastolic blood pressure measured by telemetry, Mean” value (from here on “Diastolic blood pressure measured”) [3, 4] of the same compound?
A: 119

Q: What about the Heart rate measured by telemetry, Mean [3, 4] of the same compound?
A: 407 bpm

Q: And the “Diastolic blood pressure measured” value [3, 5]?
A: 121

Q: What about the Heart rate measured by telemetry, Mean [3, 5] of the same compound?
A: 402 bpm

Q: And the “Systolic blood pressure measured by telemetry, Mean” value (“Systolic blood pressure measured” below) [3, 5]?
A: 172

Q: What about the “Diastolic blood pressure measured” value [3, 6] of the same compound?
A: 123

Q: And the Heart rate measured by telemetry, Mean [3, 6]?
A: 405 bpm

Q: What about the “Systolic blood pressure measured” value [3, 6] of the same compound?
A: 175

Q: What about the “Diastolic blood pressure measured” value [3, 7] of the same compound?
A: 124

Q: And the Heart rate measured by telemetry, Mean [3, 7]?
A: 399 bpm

Q: And the “Systolic blood pressure measured” value [3, 7]?
A: 177

Q: What about the “Diastolic blood pressure measured” value [3, 8] of the same compound?
A: 126

Q: And the Heart rate measured by telemetry, Mean [3, 8]?
A: 398 bpm

Q: And the “Systolic blood pressure measured” value [3, 8]?
A: 179

Q: And the “Diastolic blood pressure measured” value [3, 9]?
A: 126

Q: And the Heart rate measured by telemetry, Mean [3, 9]?
A: 398 bpm

Q: What about the “Systolic blood pressure measured” value [3, 9] of the same compound?
A: 179

Q: And the “Diastolic blood pressure measured” value [3, 10]?
A: 131

Q: What about the Heart rate measured by telemetry, Mean [3, 10] of the same compound?
A: 393 bpm

Q: What about the “Systolic blood pressure measured” value [3, 10] of the same compound?
A: 184

Q: What about the “Diastolic blood pressure measured” value [3, 11] of the same compound?
A: 135

Q: What about the Heart rate measured by telemetry, Mean [3, 11] of the same compound?
A: 401 bpm

Q: And the “Systolic blood pressure measured” value [3, 11]?
A: 188

Q: And the “Diastolic blood pressure measured” value [3, 12]?
A: 136

Q: What about the Heart rate measured by telemetry, Mean [3, 12] of the same compound?
A: 398 bpm

Q: And the “Systolic blood pressure measured” value [3, 12]?
A: 190

Q: And the Heart rate measured by telemetry, Mean [3, 13]?
A: 398 bpm

Q: And the “Systolic blood pressure measured” value [3, 13]?
A: 192

Q: What about the Heart rate measured by telemetry, Mean [3, 14] of the same compound?
A: 399 bpm

Q: What about the “Systolic blood pressure measured” value [3, 14] of the same compound?
A: 194

Q: And the Heart rate measured by telemetry, Mean [3, 15]?
A: 399 bpm

Q: What about the “Systolic blood pressure measured” value [3, 15] of the same compound?
A: 196

Q: What about the Heart rate measured by telemetry, Mean [3, 16] of the same compound?
A: 395 bpm

Q: And the “Systolic blood pressure measured” value [3, 16]?
A: 196

Q: What about the Heart rate measured by telemetry, Mean [3, 17] of the same compound?
A: 393 bpm

Q: What about the “Systolic blood pressure measured” value [3, 17] of the same compound?
A: 198

Q: What about the Heart rate measured by telemetry, Mean [3, 18] of the same compound?
A: 398 bpm

Q: And the “Systolic blood pressure measured” value [3, 18]?
A: 202

Q: What about the Heart rate measured by telemetry, Mean [3, 19] of the same compound?
A: 401 bpm

Q: And the “Systolic blood pressure measured” value [3, 19]?
A: 204

Q: What about the Heart rate measured by telemetry, Mean [3, 20] of the same compound?
A: 402 bpm

Q: And the “Systolic blood pressure measured” value [3, 20]?
A: 204

Q: What about the “Diastolic blood pressure measured” value [3, 21] of the same compound?
A: 124

Q: What about the Heart rate measured by telemetry, Mean [3, 21] of the same compound?
A: 395 bpm

Q: What about the “Systolic blood pressure measured” value [3, 21] of the same compound?
A: 173

Q: What about the “Diastolic blood pressure measured” value [3, 22] of the same compound?
A: 127

Q: And the Heart rate measured by telemetry, Mean [3, 22]?
A: 394 bpm

Q: What about the “Systolic blood pressure measured” value [3, 22] of the same compound?
A: 176

Q: And the “Diastolic blood pressure measured” value [3, 23]?
A: 124

Q: What about the Heart rate measured by telemetry, Mean [3, 23] of the same compound?
A: 400 bpm

Q: What about the “Systolic blood pressure measured” value [3, 23] of the same compound?
A: 171

Q: What about the “Diastolic blood pressure measured” value [3, 24] of the same compound?
A: 124

Q: What about the Heart rate measured by telemetry, Mean [3, 24] of the same compound?
A: 403 bpm

Q: And the “Systolic blood pressure measured” value [3, 24]?
A: 174
